Patent US12312332B2 (Merck Sharp & Dohme LLC., priority 2019, dated 2025)

Target: T1, human OX2R (Homo sapiens, UniProt O43614)
T1 construct: expressed in transfected cells; host or cells: Chinese hamster ovary (CHO) cells, kept under G418 selection
T1 sequence (O43614 1-444): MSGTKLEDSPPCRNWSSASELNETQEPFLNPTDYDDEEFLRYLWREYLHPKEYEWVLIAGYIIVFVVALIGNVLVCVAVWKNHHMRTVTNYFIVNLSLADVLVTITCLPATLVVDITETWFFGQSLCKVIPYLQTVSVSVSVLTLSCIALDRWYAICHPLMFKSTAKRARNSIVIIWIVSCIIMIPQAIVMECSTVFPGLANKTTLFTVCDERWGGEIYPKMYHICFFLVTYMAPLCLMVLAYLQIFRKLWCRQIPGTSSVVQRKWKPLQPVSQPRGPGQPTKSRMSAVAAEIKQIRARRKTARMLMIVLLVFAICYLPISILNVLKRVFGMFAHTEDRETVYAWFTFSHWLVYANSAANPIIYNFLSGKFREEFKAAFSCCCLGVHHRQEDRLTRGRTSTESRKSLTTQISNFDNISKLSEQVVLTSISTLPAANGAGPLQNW
Assay: IPOne (IP-One) orexin receptor agonist assay in CHO cells expressing human OX2R
Type: cell-based
Conditions: for EC50: CHO cells expressing human OX2R, IP-One detection, 2 hours incubation, four parameter logistic fit, read-out: OX2R Potency, EC50; for % max agonist effect (Emax): human OX2R, percentage of sample raw value/mean max effect (reference compound at 1 uM with 100% activity)

Row | Compound | EC50 | % max agonist effect (Emax)
1 | Cc1sc(N2CC[C@H](NS(C)(=O)=O)[C@@H]2CO[C@H]2CC[C@@H](c3ccccc3)CC2)nc1Br [Example 106, N-((2R,3S)-1-(4-bromo-5-methylthiazol-2-yl)-2-((((CIS)-4-phenylcyclohexyl)oxy)methyl)pyrrolidin-3-yl)methanesulfonamide] | 1.7 µM | 98.0%
2 | CS(=O)(=O)N[C@H]1CCN(c2nc(O)cs2)[C@H]1CO[C@H]1CC[C@@H](c2ccccc2)CC1 [Example 107, N-((2R,3S)-1-(4-hydroxythiazol-2-yl)-2-((((CIS)-4-phenylcyclohexyl)oxy)methyl)pyrrolidin-3-yl)methanesulfonamide] | 0.676 µM | 97.2%
3 | CS(=O)(=O)N[C@H]1CCN(c2nc(Br)cs2)[C@H]1CO[C@H]1CC[C@@H](c2ccccc2)CC1 [Example 108, N-((2R,3S)-1-(4-bromothiazol-2-yl)-2-((((CIS)-4-phenylcyclohexyl)oxy)methyl)pyrrolidin-3-yl)methanesulfonamide] | 1.12 µM | 97.4%
4 | Cc1nc(N2CC[C@H](NS(C)(=O)=O)[C@@H]2CO[C@H]2CC[C@@H](c3ccccc3)CC2)cs1 [Example 109, N-((2R,3S)-1-(2-methylthiazol-4-yl)-2-((((CIS)-4-phenylcyclohexyl)oxy)methyl)pyrrolidin-3-yl)methanesulfonamide] | 0.14 µM | 97.7%
5 | CS(=O)(=O)N[C@H]1CCN(c2cscn2)[C@H]1CO[C@H]1CC[C@@H](c2ccccc2)CC1 [Example 110, N-((2R,3S)-2-((((CIS)-4-phenylcyclohexyl)oxy)methyl)-1-(thiazol-4-yl)pyrrolidin-3-yl)methanesulfonamide] | 0.0179 µM | 102%
6 | Cn1cccc(N2CC[C@H](NS(C)(=O)=O)[C@@H]2CO[C@H]2CC[C@@H](c3ccccc3)CC2)c1=O [Example 111, N-((2R,3S)-1-(1-methyl-2-oxo-1,2-dihydropyridin-3-yl)-2-((((CIS)-4-phenylcyclohexyl)oxy)methyl)pyrrolidin-3-yl)methanesulfonamide] | 0.108 µM | 100%
7 | Cn1cc(N2CC[C@H](NS(C)(=O)=O)[C@@H]2CO[C@H]2CC[C@@H](c3ccccc3)CC2)ccc1=O [Example 112, N-((2R,3S)-1-(1-methyl-6-oxo-1,6-dihydropyridin-3-yl)-2-((((CIS)-4-phenylcyclohexyl)oxy)methyl)pyrrolidin-3-yl)methanesulfonamide] | 4.65 µM | 88.2%
8 | CS(=O)(=O)N[C@H]1CCN(c2cc(O)c(Cl)cn2)[C@H]1CO[C@H]1CC[C@@H](c2ccccc2)CC1 [Example 113, N-((2R,3S)-1-(5-chloro-4-hydroxypyridin-2-yl)-2-((((CIS)-4-phenylcyclohexyl)oxy)methyl)pyrrolidin-3-yl)methanesulfonamide] | 0.0011 µM | 102.4%
9 | CS(=O)(=O)N[C@H]1CCN(c2ncc(Cl)c(O)c2F)[C@H]1CO[C@H]1CC[C@@H](c2ccccc2)CC1 [Example 114, N-((2R,3S)-1-(5-chloro-3-fluoro-4-hydroxypyridin-2-yl)-2-((((CIS)-4-phenylcyclohexyl)oxy)methyl)pyrrolidin-3-yl)methanesulfonamide] | 0.0017 µM | 102.4%
10 | COc1ccnc(N2CC[C@H](NS(C)(=O)=O)[C@@H]2CO[C@H]2CC[C@@H](c3ccccc3)CC2)c1F [Example 115, N-((2R,3S)-1-(3-fluoro-4-methoxypyridin-2-yl)-2-((((CIS)-4-phenylcyclohexyl)oxy)methyl)pyrrolidin-3-yl)methanesulfonamide] | 2.41 µM | 93.7%
11 | Cn1c(N2CC[C@H](NS(C)(=O)=O)[C@@H]2CO[C@H]2CC[C@@H](c3ccccc3)CC2)cccc1=O [Example 116, N-((2R,3S)-1-(1-methyl-6-oxo-1,6-dihydropyridin-2-yl)-2-((((CIS)-4-phenylcyclohexyl)oxy)methyl)pyrrolidin-3-yl)methanesulfonamide] | 0.393 µM | 99.6%
12 | CS(=O)(=O)N[C@H]1CCN(c2nccc(O)c2F)[C@H]1CO[C@H]1CC[C@@H](c2ccccc2)CC1 [Example 117, N-((2R,3S)-1-(3-fluoro-4-hydroxypyridin-2-yl)-2-((((CIS)-4-phenylcyclohexyl)oxy)methyl)pyrrolidin-3-yl)methanesulfonamide] | 0.00058 µM | 100.7%
13 | Cn1ccc(N2CC[C@H](NS(C)(=O)=O)[C@@H]2CO[C@H]2CC[C@@H](c3ccccc3)CC2)cc1=O [Example 118, N-((2R,3S)-1-(1-methyl-2-oxo-1,2-dihydropyridin-4-yl)-2-((((CIS)-4-phenylcyclohexyl)oxy)methyl)pyrrolidin-3-yl)methanesulfonamide] | 0.0332 µM | 100.2%
14 | COc1cnc(N2CC[C@H](NS(C)(=O)=O)[C@@H]2CO[C@H]2CC[C@@H](c3ccccc3)CC2)cc1O [Example 119, N-((2R,3S)-1-(4-hydroxy-5-methoxypyridin-2-yl)-2-((((CIS)-4-phenylcyclohexyl)oxy)methyl)pyrrolidin-3-yl)methanesulfonamide] | 0.0358 µM | 101.8%
15 | CS(=O)(=O)N[C@H]1CCN(c2nccc(O)c2Cl)[C@H]1CO[C@H]1CC[C@@H](c2ccccc2)CC1 [Example 120, N-((2R,3S)-1-(3-chloro-4-hydroxypyridin-2-yl)-2-((((CIS)-4-phenylcyclohexyl)oxy)methyl)pyrrolidin-3-yl)methanesulfonamide] | 0.0108 µM | 100.5%
16 | CS(=O)(=O)N[C@H]1CCN(c2cnccc2C(F)F)[C@H]1CO[C@H]1CC[C@@H](c2ccccc2)CC1 [Example 121, N-((2R,3S)-1-(4-(difluoromethyl)pyridin-3-yl)-2-((((CIS)-4-phenylcyclohexyl)oxy)methyl)pyrrolidin-3-yl)methanesulfonamide] | 0.0169 µM | 101.1%
17 | CS(=O)(=O)N[C@H]1CCN(c2cnccc2O)[C@H]1CO[C@H]1CC[C@@H](c2ccccc2)CC1 [Example 122, N-((2R,3S)-1-(4-hydroxypyridin-3-yl)-2-((((CIS)-4-phenylcyclohexyl)oxy)methyl)pyrrolidin-3-yl)methanesulfonamide] | 0.0383 µM | 101%
18 | CS(=O)(=O)N[C@H]1CCN(c2cnccc2OCc2ccccc2)[C@H]1CO[C@H]1CC[C@@H](c2ccccc2)CC1 [Example 123, N-((2R,3S)-1-(4-(benzyloxy)pyridin-3-yl)-2-((((CIS)-4-phenylcyclohexyl)oxy)methyl)pyrrolidin-3-yl)methanesulfonamide] | 0.755 µM | 97.6%
19 | CS(=O)(=O)N[C@H]1CCN(c2ncccc2C(F)F)[C@H]1CO[C@H]1CC[C@@H](c2ccccc2)CC1 [Example 124, N-((2R,3S)-1-(3-(difluoromethyl)pyridin-2-yl)-2-((((CIS)-4-phenylcyclohexyl)oxy)methyl)pyrrolidin-3-yl)methanesulfonamide] | 0.15 µM | 100.2%
20 | Cc1cccnc1N1CC[C@H](NS(C)(=O)=O)[C@@H]1CO[C@H]1CC[C@@H](c2ccccc2)CC1 [Example 125, N-((2R,3S)-1-(3-methylpyridin-2-yl)-2-((((CIS)-4-phenylcyclohexyl)oxy)methyl)pyrrolidin-3-yl)methanesulfonamide] | 0.0592 µM | 100%
21 | CS(=O)(=O)N[C@H]1CCN(c2ncccc2C(F)(F)F)[C@H]1CO[C@H]1CC[C@@H](c2ccccc2)CC1 [Example 126, N-((2R,3S)-2-((((CIS)-4-phenylcyclohexyl)oxy)methyl)-1-(3-(trifluoromethyl)pyridin-2-yl)pyrrolidin-3-yl)methanesulfonamide] | 0.37 µM | 100%
22 | CS(=O)(=O)N[C@H]1CCN(c2ncccc2OC(F)(F)F)[C@H]1CO[C@H]1CC[C@@H](c2ccccc2)CC1 [Example 127] | 0.162 µM | 100.7%
23 | COc1cncc(N2CC[C@H](NS(C)(=O)=O)[C@@H]2CO[C@H]2CC[C@@H](c3ccccc3)CC2)c1C [Example 128, N-((2R,3S)-1-(5-methoxy-4-methylpyridin-3-yl)-2-((((CIS)-4-phenylcyclohexyl)oxy)methyl)pyrrolidin-3-yl)methanesulfonamide] | > 10 µM | 50.4%
24 | CS(=O)(=O)N[C@H]1CCN(c2cc(F)cnc2O)[C@H]1CO[C@H]1CC[C@@H](c2ccccc2)CC1 [Example 129, N-((2R,3S)-1-(5-fluoro-2-hydroxypyridin-3-yl)-2-((((CIS)-4-phenylcyclohexyl)oxy)methyl)pyrrolidin-3-yl)methanesulfonamide] | 0.821 µM | 99.7%
25 | CS(=O)(=O)N[C@H]1CCN(c2ccc(C(F)(F)F)cn2)[C@H]1CO[C@H]1CC[C@@H](c2ccccc2)CC1 [Example 130, N-((2R,3S)-2-((((CIS)-4-phenylcyclohexyl)oxy)methyl)-1-(5-(trifluoromethyl)pyridin-2-yl)pyrrolidin-3-yl)methanesulfonamide] | 4 µM | 70.8%
